Results taken from paper PMC10005104 (Molecules, 2023).
“And” between values parts separate entries of the source, which are not always exact repeats. Identical values can stand only once. Counter-ions that a name gives are not always drawn. Like-named read-outs stand apart in the source and are kept apart here. Marks after values point to notes of the source that are not given here.

What was measured:
[1] = target: T1, human H3 receptor (hH3R) (Homo sapiens, UniProt Q9Y5N1); test: [3H]-Nα-methylhistamine radioligand binding assay, HEK293 cell membranes expressing hH3R; conditions: hH3R Ki Mean [CI 95%], HEK293 cells expressing human H3 receptor; at least three independent repetitions
T1 construct: expressed in transfected cells; host or cells: HEK293
T1 sequence (Q9Y5N1 whole entry): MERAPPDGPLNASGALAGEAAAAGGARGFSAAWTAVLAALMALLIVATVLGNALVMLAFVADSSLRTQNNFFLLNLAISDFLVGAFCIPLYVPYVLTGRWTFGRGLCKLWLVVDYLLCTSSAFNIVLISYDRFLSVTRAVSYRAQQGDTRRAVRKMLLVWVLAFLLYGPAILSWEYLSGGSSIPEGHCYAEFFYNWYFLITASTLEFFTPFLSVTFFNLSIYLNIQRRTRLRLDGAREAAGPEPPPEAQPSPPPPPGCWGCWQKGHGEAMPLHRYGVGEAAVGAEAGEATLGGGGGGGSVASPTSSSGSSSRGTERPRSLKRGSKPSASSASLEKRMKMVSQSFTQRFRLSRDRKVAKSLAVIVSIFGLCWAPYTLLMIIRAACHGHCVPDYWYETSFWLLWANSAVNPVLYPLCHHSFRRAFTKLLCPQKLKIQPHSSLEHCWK
Description: The affinity for hH3R was assessed in vitro in radioligand binding assays, using membrane preparations of HEK293 cells stably expressing hH3R, while [^3H]-N^α-methylhistamine was used as a radioligand. The exact procedure was described previously by Kottke et al.. Novel compounds were tested as oxalic acid salts. […]. The activity depended on all three variables, i.e., the presence of an amine group, the chain length (five or six carbons), and the type of substituent in the phenyl ring. With regard to the change in the amine moiety, it can be observed that, regardless of the length of the chain and the type of R substituent, the activity of the derivatives was arranged in the following order: 3-methylpiperidine ≥ piperidine ≥ azepane >> 4-metylpiperidine derivatives. Regarding the length of the carbon chain, compounds bearing the pentylene chain are characterized by a higher binding affinity to the receptor than hexylene derivatives (exception: 10). […]
H3R receptor affinity assays were performed in the radioligand competition assay. Human H3R was stably expressed in HEK293 cells. [^3H]-N^α-Methylhistamine (KD = 3.08 nM) was used as the radioligand. The compounds used in the experiments were dissolved in DMSO. The precise experiment was performed as previously described. Complete curves were obtained for at least seven approximate concentrations, in at least three independent experiments, performed at least in duplicate. Ki values were calculated using the Cheng–Prusoff equation. Results are presented as mean values with confidence intervals (CI) (95%).

[2] = target: T2, AChE from electrophorus electricus (eeAChE) (Electrophorus electricus, UniProt O42275); test: modified Ellman colorimetric assay, eeAChE; assay type: biochemical; conditions: for inhibition at 10 µM: read-out: eeAChE % inh; for IC50: three independent experiments, read-out: eeAChE IC50 Mean ± SEM
T2 construct: purchased Sigma-Aldrich (Steinheim, Germany)
T2 sequence (O42275 24-633): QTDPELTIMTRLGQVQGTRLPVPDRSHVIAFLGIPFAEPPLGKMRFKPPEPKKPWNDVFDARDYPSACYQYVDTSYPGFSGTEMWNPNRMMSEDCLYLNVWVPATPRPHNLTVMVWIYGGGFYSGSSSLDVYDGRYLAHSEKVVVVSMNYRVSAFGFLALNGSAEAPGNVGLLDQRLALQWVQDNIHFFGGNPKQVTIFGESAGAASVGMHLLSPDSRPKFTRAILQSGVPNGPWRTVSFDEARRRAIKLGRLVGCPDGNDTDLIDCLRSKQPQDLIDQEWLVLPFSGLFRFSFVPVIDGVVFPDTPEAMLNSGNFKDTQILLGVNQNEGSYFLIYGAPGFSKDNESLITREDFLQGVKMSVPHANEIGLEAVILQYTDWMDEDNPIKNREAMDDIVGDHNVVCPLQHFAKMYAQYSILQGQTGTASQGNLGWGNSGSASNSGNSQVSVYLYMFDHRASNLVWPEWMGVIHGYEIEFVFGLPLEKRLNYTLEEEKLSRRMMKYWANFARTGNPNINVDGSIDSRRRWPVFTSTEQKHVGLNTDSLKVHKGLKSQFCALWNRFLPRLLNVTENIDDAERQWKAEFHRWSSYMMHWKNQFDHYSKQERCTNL
Description: All compounds were tested at a concentration of 10 µM in a modified colorimetric method first described by Ellman et al. in the 1960s, using AChE from electrophorus electricus (eeAChE) and BuChE from equine serum (eqBuChE). […]. All results are collected in Table 1. […]. […] No correlation was observed between inhibitory activity and hH3R affinity. The most interesting compounds were among the azepane derivatives. […]. AChE from electrophorus electricus and BuChE from equine serum were purchased from Sigma-Aldrich (Steinheim, Germany). The whole procedure was performed as previously described, using a modified Ellman method in 96-well microplates. Absorbance was measured using an EnSpire multimode microplate reader (PerkinElmer, Waltham, MA, USA) at 412 nm. Initial screening was performed for compounds at a concentration of […]. The percentage of inhibition was calculated by comparison with a blank sample (100% enzyme activity). For compounds showing >70% inhibition of enzyme activity, IC50 values were determined, measuring absorbance at six different inhibitor concentrations. Each concentration was measured in triplicate. IC50 values were calculated using GrapPad Prism 9 software (GraphPad Software, San Diego, CA, USA). Data are expressed as mean ± SEM.

[3] = target: T3, BuChE from equine serum (eqBuChE) (Equus caballus, UniProt P81908); test: biochemical; conditions: for inhibition at 10 µM: read-out: eqBuChE % inh
T3 construct: BuChE from equine serum (eqBuChE); purchased Sigma-Aldrich (Steinheim, Germany); host or cells: equine serum
T3 sequence (P81908 whole entry): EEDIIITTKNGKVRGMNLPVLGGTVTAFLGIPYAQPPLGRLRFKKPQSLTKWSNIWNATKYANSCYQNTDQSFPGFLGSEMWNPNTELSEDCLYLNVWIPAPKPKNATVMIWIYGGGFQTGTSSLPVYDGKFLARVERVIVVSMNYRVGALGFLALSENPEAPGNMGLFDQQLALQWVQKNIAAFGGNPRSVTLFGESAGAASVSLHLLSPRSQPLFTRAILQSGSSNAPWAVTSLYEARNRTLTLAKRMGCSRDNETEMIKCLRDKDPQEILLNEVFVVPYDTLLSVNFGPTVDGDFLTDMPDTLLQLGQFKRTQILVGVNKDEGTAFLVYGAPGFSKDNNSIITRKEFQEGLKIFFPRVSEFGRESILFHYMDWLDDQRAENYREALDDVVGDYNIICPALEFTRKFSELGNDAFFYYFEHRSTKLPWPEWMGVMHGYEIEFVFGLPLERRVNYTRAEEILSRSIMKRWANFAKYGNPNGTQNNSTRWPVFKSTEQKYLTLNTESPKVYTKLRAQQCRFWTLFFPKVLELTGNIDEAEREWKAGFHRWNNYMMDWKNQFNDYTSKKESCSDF
Description: AChE from electrophorus electricus and BuChE from equine serum were purchased from Sigma-Aldrich (Steinheim, Germany). The whole procedure was performed as previously described, using a modified Ellman method in 96-well microplates. […] Initial screening was performed for compounds at a concentration of […]. The percentage of inhibition was calculated by comparison with a blank sample (100% enzyme activity). […] Each concentration was measured in triplicate. IC50 values were calculated using GrapPad Prism 9 software (GraphPad Software, San Diego, CA, USA). Data are expressed as mean ± SEM.

[4] = target: T4, hMAO B (Homo sapiens, UniProt P27338); test: fluorometric Amplex red MAO assay; assay type: biochemical; conditions: read-out: hMAO B % inh
T4 construct: purchased Sigma-Aldrich (Steinheim, Germany)
T4 sequence (P27338 1-520): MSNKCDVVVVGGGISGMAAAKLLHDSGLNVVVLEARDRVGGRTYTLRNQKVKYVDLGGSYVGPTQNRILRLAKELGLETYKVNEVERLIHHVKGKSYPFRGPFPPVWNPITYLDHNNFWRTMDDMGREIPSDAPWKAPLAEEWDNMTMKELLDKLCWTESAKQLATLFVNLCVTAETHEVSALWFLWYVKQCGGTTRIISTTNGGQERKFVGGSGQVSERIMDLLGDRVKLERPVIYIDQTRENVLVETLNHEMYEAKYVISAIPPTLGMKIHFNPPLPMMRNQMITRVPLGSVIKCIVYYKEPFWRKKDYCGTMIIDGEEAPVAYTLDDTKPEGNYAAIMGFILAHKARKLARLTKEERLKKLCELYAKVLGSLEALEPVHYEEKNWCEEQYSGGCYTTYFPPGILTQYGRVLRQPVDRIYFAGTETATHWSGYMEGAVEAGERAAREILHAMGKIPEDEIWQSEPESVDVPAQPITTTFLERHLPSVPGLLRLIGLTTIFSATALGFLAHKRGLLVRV
Description: The ability to inhibit MAO B was estimated by a fluorescence assay, as previously described.
The enzyme was purchased from Sigma-Aldrich (Steinheim, Germany). Screening was carried out at a concentration of 1 micromolar. Inhibitor activity was measured in the presence of p-tyramine.
Data are expressed as mean values of two independent experiments.

[5] = target: T2, AChE from electrophorus electricus (eeAChE); conditions: at 10 µM; cited from earlier work
[6] = MTS assay in HepG2 cells; assay type: cell-based; conditions: human, HepG2 hepatoma cells; at 50 µM, percentage of control (vehicle-treated cells); read-out: HepG2 Cell Viability (%)
Description: (§1) . After the indicated time, the MTS reagent was added directly to the cultured cells for 1 h, and then the absorbance at 490 nm was read. […] The results are presented in Table 2 and Figures S1 and S2 (Supplementary Materials).
(§2) The hepatoma cell line HepG2 (ATCC® HB-8065TM) and SH-SY5Y CRL-2266 neuroblastoma cell line were used to evaluate the toxicity of tested compounds. Tests were conducted as described previously. The CellTiter 96® Aqueous Non-Radioactive Cell Proliferation Assay was purchased from Promega (Madison, WI, USA). […]. […] Each experiment was performed twice, in triplicate.

[7] = tested on: HepG2 cells; test: MTS assay in HepG2 cells; assay type: cell-based; conditions: Homo sapiens, HepG2; MTS assay, 48 h of exposure
Description: as §1, §2

[8] = tested on: SH-SY5Y cells; test: MTS assay in SH-SY5Y cells; assay type: cell-based; conditions: at 50 µM, percentage of control (vehicle-treated cells)
Description: as §1, §2

[9] = MTS assay, statements on both cell lines together; assay type: cell-based, human; conditions: human, HepG2 hepatoma cells and SH-SY5Y neuroblastoma cells; HepG2 48 h, SH-SY5Y 24 h; up to 50 µM; read-out: cell viability at the highest doses tested
[10] = target: hH3R; conditions: cited from earlier work
[11] = at 1 µM, two independent experiments

SMILES: CC(=O)c1ccc(OCCCCCN2CCCCCC2)cc1 [Compound 14, 1-(4-((5-(Azepan-1-yl)pentyl)oxy)phenyl)ethan-1-one hydrogen oxalate]
- Ki [1]: 52 nM
- inhibition at 10 µM [2]: 63%
- inhibition at 10 µM [3]: 63%
- inhibition at 1 µM [4, 11]: 37%

SMILES: Clc1ccc(CCCOCCCN2CCCCC2)cc1 [pitolisant]
- eeAChE % inh [5]: (3%) ^g

SMILES: C#CCN[C@@H]1CCc2ccccc21 [rasagiline, reference compound]
- inhibition at 1 µM [4]: 100%

SMILES: CC(=O)c1ccc(OCCCCCCN2CCCC(C)C2)cc1.O=C(O)C(=O)O (stereo not shown) [Compound 7, 1-(4-((6-(3-Methylpiperidin-1-yl)hexyl)oxy)phenyl)ethan-1-one hydrogen oxalate]
- Ki [1]: 72 nM
- IC50 [2]: 1750 ± 50 nM
- inhibition at 10 µM [3]: 18%
- inhibition at 1 µM [4, 11]: 0%
- viability at 48 h, 50 µM [6]: 72.4 ± 4.54%
- IC50 [7]: 148000 nM
- SH-SY5Y Cell Viability (%) [8]: No toxic effect
- viability at 50 µM [9]: > 50%

SMILES: CC(=O)c1ccc(OCCCCCN2CCCCC2)cc1 [Compound 2, 1-(4-((5-(Piperidin-1-yl)pentyl)oxy)phenyl)ethan-1-one hydrogen oxalate]
- Ki [1]: < 50 nM and 34 nM
- inhibition at 10 µM [2]: 45%
- inhibition at 10 µM [3]: 25%
- inhibition at 1 µM [4, 11]: 2%

SMILES: CC(=O)c1ccc(OCCCCCCN2CCC(C)CC2)cc1.O=C(O)C(=O)O [Compound 11, 1-(4-((6-(4-Methylpiperidin-1-yl)hexyl)oxy)phenyl)ethan-1-one hydrogen oxalate]
- Ki [1]: 106 nM
- IC50 [2]: 2650 ± 110 nM
- inhibition at 10 µM [3]: 49%
- inhibition at 1 µM [4, 11]: 0%
- viability at 48 h, 50 µM [6]: 77.5 ± 0.94%
- IC50 [7]: 223000 nM
- SH-SY5Y Cell Viability (%) [8]: No toxic effect
- viability at 50 µM [9]: > 50%

SMILES: CC(=O)c1ccc(OCCCCCCN2CCCCC2)cc1 [Compound 3, 1-(4-((6-(Piperidin-1-yl)hexyl)oxy)phenyl)ethan-1-one hydrogen oxalate]
- Ki [1]: 75 nM
- inhibition at 10 µM [2]: 67%
- inhibition at 10 µM [3]: 23%
- inhibition at 1 µM [4, 11]: 3%

SMILES: CCC(=O)c1ccc(OCCCCCCN2CCCC(C)C2)cc1 (stereo not shown) [Compound 9, 1-(4-((6-(3-Methylpiperidin-1-yl)hexyl)oxy)phenyl)propan-1-one hydrogen oxalate]
- Ki [1]: < 50 nM and 38 nM
- inhibition at 10 µM [2]: 68%
- inhibition at 10 µM [3]: 66%
- inhibition at 1 µM [4, 11]: 12%

SMILES: CCC(=O)c1ccc(OCCCCCCN2CCCCC2)cc1.O=C(O)C(=O)O [Compound 5, 1-(4-((6-(Piperidin-1-yl)hexyl)oxy)phenyl)propan-1-one hydrogen oxalate]
- Ki [1]: < 50 nM and 41 nM
- IC50 [2]: 4790 ± 190 nM
- IC50 ([3]; three independent experiments, read-out: eqBuChE IC50 Mean ± SEM): 1350 ± 40 nM
- inhibition at 1 µM [4, 11]: 22%
- viability at 48 h, 50 µM [6]: 69.5 ± 2.14%
- IC50 [7]: 158000 nM
- SH-SY5Y Cell Viability (%) [8]: No toxic effect
- viability at 50 µM [9]: > 50%

SMILES: CC(=O)c1ccc(OCCCCCCN2CCCCCC2)cc1 [Compound 15, 1-(4-((6-(Azepan-1-yl)hexyl)oxy)phenyl)ethan-1-one hydrogen oxalate]
- Ki [1]: 79 nM
- inhibition at 10 µM [2]: 67%
- inhibition at 10 µM [3]: 68%
- inhibition at 1 µM [4, 11]: 6%

SMILES: CCC(=O)c1ccc(OCCCCCN2CCCCC2)cc1 [Compound 4, 1-(4-((5-(Piperidin-1-yl)pentyl)oxy)phenyl)propan-1-one hydrogen oxalate]
- Ki [1]: < 50 nM and 24 nM
- inhibition at 10 µM [2]: 49%
- inhibition at 10 µM [3]: 32%
- inhibition at 1 µM [4, 11]: 16%

SMILES: CC(=O)c1ccc(OCCCCCN2CCC(C)CC2)cc1 [Compound 10, 1-(4-((5-(4-Methylpiperidin-1-yl)pentyl)oxy)phenyl)ethan-1-one hydrogen oxalate]
- Ki [1]: 120 nM
- inhibition at 10 µM [2]: 60%
- inhibition at 10 µM [3]: 43%
- inhibition at 1 µM [4, 11]: 0%

SMILES: Cc1ccc2oc(-c3ccc(OCCCCCCN4CCCCCC4)cc3)cc(=O)c2c1 [III]
- Ki [10]: 160 nM

SMILES: CCC(=O)c1ccc(OCCCCCCN2CCC(C)CC2)cc1.O=C(O)C(=O)O [Compound 13, 1-(4-((6-(4-Methylpiperidin-1-yl)hexyl)oxy)phenyl)propan-1-one hydrogen oxalate]
- Ki [1]: 58 nM
- IC50 [2]: 2560 ± 80 nM
- inhibition at 10 µM [3]: 65%
- inhibition at 1 µM [4, 11]: 1%
- viability at 48 h, 50 µM [6]: 64.7 ± 4.4%
- IC50 [7]: 105000 nM
- SH-SY5Y Cell Viability (%) [8]: No toxic effect
- viability at 50 µM [9]: > 50%

SMILES: O=c1c2ccccc2oc2ccc(OCCCCCN3CCCCCC3)cc12 [IV]
- Ki [10]: 170 nM
